The source of these data is ChEMBL document CHEMBL5346981, “Structure-Guided Design and Synthesis of a Pyridazinone Series of Trypanosoma cruzi Proteasome Inhibitors” (J Med Chem, 2023).

The source made the active and inactive calls. The rule behind the calls is not given here.

The nature of data set [1]: Inhibition of chymotrypsin like activity in Trypanosoma cruzi Silvio X10/7 proteasome using Suc-LLVY-Rho-110-D-Proline peptide as substrate preincubated for 10 mins followed by substrate addition and measured for 30 mins by fluorescence based microplate reader analysis.
The nature of data set [2]: Cytotoxicity against African green monkey Vero E6 cells assessed as reduction in cell viability. Format: toxicity, cell-based. Conditions: African green monkey (Chlorocebus sabaeus).
Data set [3] has as its system Blood. Description: T>EC99 in Balb/c mouse assessed as time of blood total concentration in mouse exceeding EC99 for antiprotozoal activity against intracellular Trypanosoma cruzi infected in Vero cells at 50 mg/kg, po and measured upto 24 hrs by UPLC-MS/MS analysis. The class given is ADME, organism-based. To be noted: in vivo.
The test system of data set [4] is Blood. Description: T>EC99 in Balb/c mouse infected with Trypanosoma cruzi X10/7 A1 assessed as time of blood free drug concentration in mouse exceeding EC99 for antiprotozoal activity against intracellular Trypanosoma cruzi infected in Vero cells at 50 mg/kg, po and measured after 1 day by UPLC-MS/MS analysis. The class given is ADME, organism-based. Conditions: in vivo, 24 h.

For data set [5], the system named is Blood. Nature of the data set: T>EC99 in Balb/c mouse infected with Trypanosoma cruzi X10/7 A1 assessed as time of blood free drug concentration in mouse exceeding EC99 for antiprotozoal activity against intracellular Trypanosoma cruzi infected in Vero cells at 50 mg/kg, po and measured after 20 days by UPLC-MS/MS analysis. The class given is ADME, organism-based. To be noted: in vivo, 480 h, time 20 day.

The test system of data set [6] is Trypanosoma cruzi. Description: Antitrypanosomal activity against Trypanosoma cruzi X10/7 A1 infected in Balb/c mouse assessed as parasite clearance at 100 mg/kg, po bid for 20 days by bioluminescence analysis. The class given is functional, organism-based. Conditions: time 20.0 day.
The test system of data set [7] is Trypanosoma cruzi. Nature of the data set: Antiprotozoal activity against intracellular Trypanosoma cruzi X10/7 A1 amastigotes infected in Vero cells assessed as parasite growth inhibition incubated for 72 to 96 hrs by Hoechst 33342 staining based analysis. The class given is functional, organism-based. To be noted: X10/7 A1, Vero.

On to `CN(C(=O)c1ccc(=O)n(Cc2ccccc2)n1)c1cccc(C(=O)NC2CC2)c1`, for which the pIC50 in data set [1] is given as below 4. In addition, the EC50 in data set [2] was above 50.1 µM.
`COc1ccc(Cn2nc(C(=O)Nc3ccc(F)c(C(=O)NC4CC4)c3)ccc2=O)cc1F` came in with a pIC50 in data set [1] of 8.1. Moreover, in the data set with Blood [3], the “T>EC99” value worked out at 14 h.
As to `CNC(=O)c1cc(NC(=O)c2ccc(=O)n(Cc3ccc(OC)cc3)n2)ccc1F`, the figures for the “T>EC99” value in the data set on Blood [4] and in the data set with Blood [5] were 5 h and below 2 h, respectively.
The molecule `CNC(=O)c1cc(NC(=O)c2ccc(=O)n(Cc3ccc(OC)c(F)c3)n2)ccc1F` displayed a pIC50 in data set [1] of 8.2.
In the case of `O=C(Cn1ccnc1[N+](=O)[O-])NCc1ccccc1`, in the data set on Trypanosoma cruzi [6], the outcome was Active.
Turning to `COc1ncc(Cn2nc(C(=O)Nc3ccc(F)c(C(=O)NC4CC4)c3)ccc2=O)cc1F`, the figures for the concentration giving a half-maximal response (EC50) (in the data set with Trypanosoma cruzi [7]; in data set [2]) were 31.6 µM and above 50.1 µM, respectively.
In data set [1], `O=C(Nc1ccc(F)c(C(=O)NC2CC2)c1)c1ccc(=O)n(CC2CCCCC2)n1` returned a pIC50 of 6.4. Moreover, the EC50 in data set [2] is above 50.1 µM.
With `COc1ccc(Cn2nc(C(=O)Nc3ccc(F)c(C(=O)N[C@H]4C[C@H](OC)C4)c3)ccc2=O)cc1F`, the pIC50 in data set [1] is 8.2.
The molecule `COc1ccc(Cn2nc(C(=O)Nc3ccc(F)c(C(=O)N[C@H]4C[C@H](N5CCOCC5)C4)c3)ccc2=O)cc1F` gave a pIC50 in data set [1] of 8.1.
Take `O=C(Nc1ccc(F)c(-c2cn3nc(N4CCOCC4)cnc3n2)c1)N1CCCC1`: the pIC50 in data set [1] is on record as 7.3. In addition, in data set [2], the EC50 was above 50.1 µM.
The matching figures for `COc1ccc(Cn2nc(C(=O)Nc3ccc(F)c(C(=O)NC4CC4)c3)ccc2=O)cc1`: 7.5 and above 50.1 µM.
`O=C(Nc1ccc(F)c(C(=O)NC2CC2)c1)c1ccc(=O)n(Cc2ccc(Cl)c(F)c2)n1` came in with a pIC50 in data set [1] of 7.6. For the same molecule, the concentration giving a half-maximal response (EC50) with Trypanosoma cruzi [7] is 0.251 µM; in data set [2] it was above 50.1 µM.
`O=C(Nc1cccc(C(=O)NC2CC2)c1)c1ccc(=O)n(Cc2ccccc2)c1` showed a pIC50 in data set [1] of 5.8. The concentration giving a half-maximal response (EC50) in data set [2] was above 50.1 µM.
The matching figures for `COc1ccc(Cn2nc(C(=O)Nc3ccc(F)c(C(=O)NCCN4CCOCC4)c3)ccc2=O)cc1`: 6.9 and above 50.1 µM.
In the case of `O=C(Nc1ccc(F)c(C(=O)NC2CC2)c1)c1ccc(=O)n(Cc2ccccc2)n1`, the pIC50 in data set [1] amounted to 6.8. The EC50 was 2.51 µM in the data set with Trypanosoma cruzi [7] and above 50.1 µM in data set [2].
For the molecule `CN(C(=O)c1cccc(NC(=O)c2ccc(=O)n(Cc3ccccc3)n2)c1)C1CC1`, the pIC50 in data set [1] is 4.7.
The molecule `O=C(NC1CC1)c1ccc(F)c(NC(=O)c2ccc(=O)n(Cc3ccccc3)n2)c1` had a negative logarithm of the IC50 (pIC50) in data set [1] of 5.8. In data set [2], the EC50 is above 50.1 µM.
In the case of `O=C(NC1CC1)c1cccc(NC(=O)c2ccc(=O)n(Cc3ccccc3)n2)c1`, the negative logarithm of the IC50 (pIC50) in data set [1] amounted to 6.2. In addition, the 50% effective concentration (EC50) in the data set on Trypanosoma cruzi [7] is 10 µM.
In turn, `COc1ccc(Cn2nc(C(=O)Nc3ccc(F)c(C(=O)N[C@H](C)CO)c3)ccc2=O)cc1F` displayed a pIC50 in data set [1] of 7.3. Also, the EC50 in the data set with Trypanosoma cruzi [7] is 0.316 µM.
For the molecule `COc1cccc(Cn2nc(C(=O)Nc3ccc(F)c(C(=O)NC4CC4)c3)ccc2=O)c1`, the negative-log IC50 (pIC50) in data set [1] was below 4. The EC50 in data set [2] was above 50.1 µM.
For `COc1ccc(Cn2nc(C(=O)Nc3ccc(F)c(C(=O)N[C@H]4C[C@@H](N5CCOCC5)C4)c3)ccc2=O)cc1F`, in data set [1], the negative-log IC50 (pIC50) came out at 8.1.
As for `COc1ccc(Cn2nc(C(=O)Nc3ccc(F)c(C(=O)NC4CC4)c3)ccc2=O)cc1C#N`, the pIC50 in data set [1] is on record as 8. For the same molecule, the EC50 in data set [2] was above 50.1 µM.
The matching figures for `COc1ccc(Cn2nc(C(=O)Nc3ccc(F)c(C(=O)NC4CC4)c3)ccc2=O)cc1Cl`: 8.5 and above 50.1 µM.
